{"source": "patent US8647687B2", "about": "“Isoamyl acetate for weight management” (Nestec S.A., priority 2008, dated 2014)", "experiment": "Clinical trial: Wanting, Liking and Intensity ratings of flavored waters after a preload", "type": "in vivo, human", "settings": "prior consumption of the preload, then rating of isoamyl acetate flavored water; 17 participants", "experimental": "Isoamyl acetate was combined with 0.5% w/w sucrose (Fisher Scientific) and dissolved in bottled mineral water (Vittel, Nestlé waters, France). Isoamyl acetate was provided as liquid concentrate supplied by Sigma-Aldrich (Steinheim, Germany). The final concentration of isoamyl acetate was 16 ppm.\nA clinical trial with 17 healthy participants was conducted to investigate the neural correlates of flavor reward in terms of “Liking” (or pleasure) and “Wanting” (or appetite). Seventeen participants rated flavored waters in different conditions while their brain electrical activity was monitored using electro-encephalography. Waters were flavored either with isoamyl acetate (described as banana) or ethyl butyrate (described as strawberry). Experimental conditions consisted in the ratings of the 2 flavored waters after a preload (prior consumption of a flavored water) or without a preload.\nThe behavioral results of this clinical trial are summarized in FIG. 1 showing the mean Wanting (or appetite) and Liking (or pleasure) ratings (from 1, not at all to 9, extremely) obtained for the ETB flavored water in the different Preload conditions from 17 participants. […] IAA: isoamyl acetate; ETB: ethyl butyrate.", "data": [{"compound": "CCCC(=O)OCC", "note": "[ethyl butyrate]", "values": [{"measurement": "appetite for isoamyl acetate flavored water", "result": "no impact"}]}]}
